Measurements as given in the supplement of paper PMC12076712.
± gives the standard deviation of the averaged measurements.

How the values were obtained:
Experiment in all cases: pIC50, kinobeads binding competition
Details in all cases: cell material: Jurkat lysate
[1] = biological target: T1, NEK3 (UniProt P51956)
T1 sequence (whole entry): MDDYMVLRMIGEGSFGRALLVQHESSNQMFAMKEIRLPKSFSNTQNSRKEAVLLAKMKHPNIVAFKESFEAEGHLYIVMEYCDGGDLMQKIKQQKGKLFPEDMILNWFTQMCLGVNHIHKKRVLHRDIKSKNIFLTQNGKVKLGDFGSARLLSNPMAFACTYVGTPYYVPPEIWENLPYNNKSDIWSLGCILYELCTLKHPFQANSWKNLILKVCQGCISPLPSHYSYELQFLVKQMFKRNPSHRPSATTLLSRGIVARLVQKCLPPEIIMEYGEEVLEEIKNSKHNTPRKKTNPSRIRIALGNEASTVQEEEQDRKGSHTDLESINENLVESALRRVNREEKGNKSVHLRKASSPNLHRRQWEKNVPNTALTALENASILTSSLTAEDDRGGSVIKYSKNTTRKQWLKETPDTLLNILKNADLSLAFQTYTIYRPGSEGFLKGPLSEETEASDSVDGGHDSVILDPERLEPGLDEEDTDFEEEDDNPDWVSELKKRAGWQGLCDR

[2] = biological target: CLK1 (UniProt P49759)
[3] = biological target: TAOK3 (UniProt Q9H2K8)
[4] = biological target: T2, UniProt Q8TBX8
T2 sequence (whole entry): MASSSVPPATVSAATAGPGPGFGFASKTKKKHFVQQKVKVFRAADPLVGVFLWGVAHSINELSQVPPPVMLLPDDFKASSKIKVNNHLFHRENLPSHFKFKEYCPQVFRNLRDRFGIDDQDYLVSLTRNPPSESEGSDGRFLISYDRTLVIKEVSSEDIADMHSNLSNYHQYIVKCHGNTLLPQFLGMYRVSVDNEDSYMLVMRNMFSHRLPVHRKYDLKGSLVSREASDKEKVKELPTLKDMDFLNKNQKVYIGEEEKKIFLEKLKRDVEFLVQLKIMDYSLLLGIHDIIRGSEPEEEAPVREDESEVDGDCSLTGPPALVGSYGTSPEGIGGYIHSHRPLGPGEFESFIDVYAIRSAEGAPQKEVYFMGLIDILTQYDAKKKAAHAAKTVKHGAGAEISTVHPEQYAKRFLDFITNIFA

[5] = biological target: T3, PIP4K2A (UniProt P48426)
T3 sequence (whole entry): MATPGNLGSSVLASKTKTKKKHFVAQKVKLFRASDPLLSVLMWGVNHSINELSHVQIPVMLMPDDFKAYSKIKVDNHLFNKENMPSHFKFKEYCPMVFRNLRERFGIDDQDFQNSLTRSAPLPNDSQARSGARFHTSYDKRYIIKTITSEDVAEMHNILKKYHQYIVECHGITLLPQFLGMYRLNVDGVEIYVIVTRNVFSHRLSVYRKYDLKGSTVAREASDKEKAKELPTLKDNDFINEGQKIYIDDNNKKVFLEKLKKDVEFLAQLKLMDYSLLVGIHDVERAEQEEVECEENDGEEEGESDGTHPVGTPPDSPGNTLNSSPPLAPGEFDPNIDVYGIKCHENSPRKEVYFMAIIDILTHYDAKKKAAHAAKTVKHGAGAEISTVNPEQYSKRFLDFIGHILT

[6] = biological target: BLK (UniProt P51451)
[7] = biological target: NEK7 (UniProt Q8TDX7)
[8] = biological target: T4, NLK (UniProt Q9UBE8)
T4 sequence (whole entry): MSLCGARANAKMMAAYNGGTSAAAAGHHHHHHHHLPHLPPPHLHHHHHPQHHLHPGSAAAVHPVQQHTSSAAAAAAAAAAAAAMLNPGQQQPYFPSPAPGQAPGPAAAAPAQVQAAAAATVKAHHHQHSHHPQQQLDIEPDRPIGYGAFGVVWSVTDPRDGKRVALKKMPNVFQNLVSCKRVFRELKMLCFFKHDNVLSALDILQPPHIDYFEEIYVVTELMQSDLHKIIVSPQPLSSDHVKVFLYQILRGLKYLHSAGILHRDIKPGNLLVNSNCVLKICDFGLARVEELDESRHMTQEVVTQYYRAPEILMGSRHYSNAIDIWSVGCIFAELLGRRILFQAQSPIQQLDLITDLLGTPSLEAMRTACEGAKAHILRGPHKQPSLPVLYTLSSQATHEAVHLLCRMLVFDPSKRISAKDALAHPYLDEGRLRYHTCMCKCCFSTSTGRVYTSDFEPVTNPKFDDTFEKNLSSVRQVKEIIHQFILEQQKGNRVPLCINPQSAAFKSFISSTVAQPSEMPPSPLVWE

[9] = biological target: UniProt Q9BUB5
[10] = biological target: T5, UniProt Q13188
T5 sequence (whole entry): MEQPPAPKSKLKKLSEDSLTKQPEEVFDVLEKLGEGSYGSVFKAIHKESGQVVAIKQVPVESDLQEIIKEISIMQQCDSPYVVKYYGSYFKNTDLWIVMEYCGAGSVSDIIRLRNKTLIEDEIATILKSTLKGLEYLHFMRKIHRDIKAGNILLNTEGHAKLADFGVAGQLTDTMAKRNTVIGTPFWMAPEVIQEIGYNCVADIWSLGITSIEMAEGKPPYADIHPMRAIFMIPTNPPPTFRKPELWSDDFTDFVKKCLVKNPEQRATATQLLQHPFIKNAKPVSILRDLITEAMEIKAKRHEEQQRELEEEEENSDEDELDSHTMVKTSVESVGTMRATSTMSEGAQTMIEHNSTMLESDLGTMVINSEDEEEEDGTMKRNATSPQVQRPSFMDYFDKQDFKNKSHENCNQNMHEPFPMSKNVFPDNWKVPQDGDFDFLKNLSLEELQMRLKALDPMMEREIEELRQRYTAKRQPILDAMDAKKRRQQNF

[11] = biological target: CSK (UniProt P41240)
[12] = biological target: MAP3K4 (UniProt Q9Y6R4)

Measured: pIC50

Sequence of UniProt Q9BUB5 (Q9BUB5 whole entry, looked up): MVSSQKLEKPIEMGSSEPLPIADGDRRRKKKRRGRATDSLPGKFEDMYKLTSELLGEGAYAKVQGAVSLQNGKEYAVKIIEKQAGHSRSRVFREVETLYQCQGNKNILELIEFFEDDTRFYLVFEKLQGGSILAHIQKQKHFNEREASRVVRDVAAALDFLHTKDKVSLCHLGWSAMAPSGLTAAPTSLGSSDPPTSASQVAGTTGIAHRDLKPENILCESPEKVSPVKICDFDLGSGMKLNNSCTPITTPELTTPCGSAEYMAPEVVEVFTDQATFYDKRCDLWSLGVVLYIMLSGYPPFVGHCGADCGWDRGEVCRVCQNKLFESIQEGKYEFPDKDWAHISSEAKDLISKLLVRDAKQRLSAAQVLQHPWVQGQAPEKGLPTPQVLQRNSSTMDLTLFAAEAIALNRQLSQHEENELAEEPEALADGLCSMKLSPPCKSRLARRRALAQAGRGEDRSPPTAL
Sequence of BLK (P51451 whole entry, looked up): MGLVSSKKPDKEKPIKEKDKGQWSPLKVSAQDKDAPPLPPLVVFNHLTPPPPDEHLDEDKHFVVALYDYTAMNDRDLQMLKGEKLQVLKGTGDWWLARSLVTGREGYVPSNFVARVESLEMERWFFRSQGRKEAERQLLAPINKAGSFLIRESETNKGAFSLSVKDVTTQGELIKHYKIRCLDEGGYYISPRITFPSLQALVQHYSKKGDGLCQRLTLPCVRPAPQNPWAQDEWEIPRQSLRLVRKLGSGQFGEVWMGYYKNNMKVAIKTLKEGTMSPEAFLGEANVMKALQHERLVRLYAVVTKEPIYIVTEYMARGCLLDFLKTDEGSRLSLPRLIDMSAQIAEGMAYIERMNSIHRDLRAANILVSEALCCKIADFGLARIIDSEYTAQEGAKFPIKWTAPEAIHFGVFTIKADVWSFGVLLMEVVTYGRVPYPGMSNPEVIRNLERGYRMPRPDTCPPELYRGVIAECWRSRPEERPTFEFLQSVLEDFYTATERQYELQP
Sequence of NEK7 (Q8TDX7 whole entry, looked up): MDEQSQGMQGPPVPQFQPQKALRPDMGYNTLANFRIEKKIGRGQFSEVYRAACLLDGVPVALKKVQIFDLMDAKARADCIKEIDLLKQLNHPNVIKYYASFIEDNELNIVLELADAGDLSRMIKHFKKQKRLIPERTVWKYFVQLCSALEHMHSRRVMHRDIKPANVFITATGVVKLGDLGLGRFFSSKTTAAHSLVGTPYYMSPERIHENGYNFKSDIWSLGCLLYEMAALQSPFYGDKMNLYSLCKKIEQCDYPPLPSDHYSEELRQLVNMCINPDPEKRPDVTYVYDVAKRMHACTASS
Sequence of CSK (P41240 whole entry, looked up): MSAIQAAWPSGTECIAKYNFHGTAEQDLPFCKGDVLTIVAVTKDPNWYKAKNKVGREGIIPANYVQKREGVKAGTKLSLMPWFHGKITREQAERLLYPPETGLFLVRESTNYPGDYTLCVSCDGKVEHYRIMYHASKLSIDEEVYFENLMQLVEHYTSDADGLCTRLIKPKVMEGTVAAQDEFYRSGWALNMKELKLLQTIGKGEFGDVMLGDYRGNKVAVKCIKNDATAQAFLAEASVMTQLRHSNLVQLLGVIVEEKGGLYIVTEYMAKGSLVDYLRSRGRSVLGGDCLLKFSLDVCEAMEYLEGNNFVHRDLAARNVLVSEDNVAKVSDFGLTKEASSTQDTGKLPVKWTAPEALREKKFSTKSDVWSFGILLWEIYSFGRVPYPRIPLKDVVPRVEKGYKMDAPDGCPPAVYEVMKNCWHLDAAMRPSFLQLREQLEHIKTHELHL
Sequence of MAP3K4 (Q9Y6R4 whole entry): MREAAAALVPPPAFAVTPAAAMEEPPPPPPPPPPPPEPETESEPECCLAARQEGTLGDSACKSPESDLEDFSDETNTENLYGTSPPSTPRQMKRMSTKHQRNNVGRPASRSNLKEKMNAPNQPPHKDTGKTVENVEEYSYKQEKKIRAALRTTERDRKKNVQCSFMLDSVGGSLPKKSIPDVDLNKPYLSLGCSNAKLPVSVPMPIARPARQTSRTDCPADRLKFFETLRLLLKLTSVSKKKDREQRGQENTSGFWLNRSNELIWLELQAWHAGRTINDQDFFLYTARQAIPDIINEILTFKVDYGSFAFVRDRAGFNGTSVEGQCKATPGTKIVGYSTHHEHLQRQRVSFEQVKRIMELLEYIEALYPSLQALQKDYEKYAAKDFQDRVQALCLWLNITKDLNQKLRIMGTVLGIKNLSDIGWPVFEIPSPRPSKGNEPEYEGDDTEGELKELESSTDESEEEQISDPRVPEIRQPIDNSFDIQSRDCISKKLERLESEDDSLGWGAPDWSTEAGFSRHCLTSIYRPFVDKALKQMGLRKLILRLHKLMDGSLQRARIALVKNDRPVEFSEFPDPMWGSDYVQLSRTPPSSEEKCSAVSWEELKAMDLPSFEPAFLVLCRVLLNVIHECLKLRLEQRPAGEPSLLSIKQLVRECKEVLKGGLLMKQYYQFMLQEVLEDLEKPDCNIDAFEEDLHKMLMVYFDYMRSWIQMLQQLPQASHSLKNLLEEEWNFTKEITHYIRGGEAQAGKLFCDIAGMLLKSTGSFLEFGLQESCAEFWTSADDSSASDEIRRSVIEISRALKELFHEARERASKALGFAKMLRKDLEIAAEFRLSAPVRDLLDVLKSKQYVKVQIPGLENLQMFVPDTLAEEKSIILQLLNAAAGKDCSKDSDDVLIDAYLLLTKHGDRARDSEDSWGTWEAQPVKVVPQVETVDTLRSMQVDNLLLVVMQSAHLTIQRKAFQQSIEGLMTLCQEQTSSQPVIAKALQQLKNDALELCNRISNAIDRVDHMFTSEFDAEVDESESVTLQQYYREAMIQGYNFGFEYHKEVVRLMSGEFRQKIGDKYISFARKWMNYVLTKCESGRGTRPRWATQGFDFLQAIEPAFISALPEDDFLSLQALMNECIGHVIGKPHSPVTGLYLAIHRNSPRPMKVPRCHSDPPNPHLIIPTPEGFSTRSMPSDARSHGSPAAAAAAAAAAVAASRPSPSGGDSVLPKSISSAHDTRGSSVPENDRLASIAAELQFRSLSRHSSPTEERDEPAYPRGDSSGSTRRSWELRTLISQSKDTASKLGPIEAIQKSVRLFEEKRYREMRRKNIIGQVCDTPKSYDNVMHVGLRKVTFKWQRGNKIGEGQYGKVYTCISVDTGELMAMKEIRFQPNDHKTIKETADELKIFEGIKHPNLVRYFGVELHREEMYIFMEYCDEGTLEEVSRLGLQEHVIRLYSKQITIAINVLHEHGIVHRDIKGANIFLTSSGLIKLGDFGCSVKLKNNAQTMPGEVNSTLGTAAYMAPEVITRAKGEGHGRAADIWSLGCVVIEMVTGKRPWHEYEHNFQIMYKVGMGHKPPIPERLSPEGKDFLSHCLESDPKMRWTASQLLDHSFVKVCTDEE
Sequence of TAOK3 (Q9H2K8 whole entry, looked up): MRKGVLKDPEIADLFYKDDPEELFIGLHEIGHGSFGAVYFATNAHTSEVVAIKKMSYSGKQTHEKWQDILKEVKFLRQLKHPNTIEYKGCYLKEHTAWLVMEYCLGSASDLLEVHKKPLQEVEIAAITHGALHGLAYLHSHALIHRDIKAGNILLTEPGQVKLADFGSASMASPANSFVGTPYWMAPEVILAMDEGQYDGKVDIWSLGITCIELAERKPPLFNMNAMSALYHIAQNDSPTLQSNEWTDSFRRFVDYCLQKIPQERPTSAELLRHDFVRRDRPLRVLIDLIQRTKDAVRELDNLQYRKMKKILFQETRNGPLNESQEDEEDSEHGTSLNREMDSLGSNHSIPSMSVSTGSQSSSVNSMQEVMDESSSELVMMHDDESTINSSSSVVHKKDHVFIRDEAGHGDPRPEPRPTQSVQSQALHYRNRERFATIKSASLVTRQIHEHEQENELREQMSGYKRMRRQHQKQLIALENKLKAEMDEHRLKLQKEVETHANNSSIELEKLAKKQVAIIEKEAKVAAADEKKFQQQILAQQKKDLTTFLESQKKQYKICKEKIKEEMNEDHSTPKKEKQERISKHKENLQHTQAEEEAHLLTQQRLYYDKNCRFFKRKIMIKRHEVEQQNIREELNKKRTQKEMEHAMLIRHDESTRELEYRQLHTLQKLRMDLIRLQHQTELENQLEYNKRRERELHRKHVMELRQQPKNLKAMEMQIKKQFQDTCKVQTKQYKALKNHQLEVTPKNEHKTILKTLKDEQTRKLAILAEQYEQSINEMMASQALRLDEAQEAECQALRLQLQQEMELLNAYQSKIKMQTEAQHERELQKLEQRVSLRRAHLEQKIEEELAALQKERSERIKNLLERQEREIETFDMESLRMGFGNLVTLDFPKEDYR
Sequence of CLK1 (P49759 whole entry, looked up): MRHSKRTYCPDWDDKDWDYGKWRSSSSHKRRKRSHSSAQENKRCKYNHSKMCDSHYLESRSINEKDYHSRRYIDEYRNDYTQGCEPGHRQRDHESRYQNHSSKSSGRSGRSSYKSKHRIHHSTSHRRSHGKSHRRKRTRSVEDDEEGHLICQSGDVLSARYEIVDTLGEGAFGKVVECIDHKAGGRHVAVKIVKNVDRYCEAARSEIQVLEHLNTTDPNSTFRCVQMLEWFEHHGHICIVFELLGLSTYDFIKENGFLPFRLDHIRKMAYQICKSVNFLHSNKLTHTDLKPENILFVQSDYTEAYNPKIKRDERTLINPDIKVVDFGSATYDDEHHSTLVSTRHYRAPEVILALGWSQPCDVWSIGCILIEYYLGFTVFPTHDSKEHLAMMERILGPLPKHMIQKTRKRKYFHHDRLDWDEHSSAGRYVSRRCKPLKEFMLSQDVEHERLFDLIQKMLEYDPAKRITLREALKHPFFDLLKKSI

CCc1cnn2c(NCc3ccc[n+]([O-])c3)cc(N3CCCC[C@H]3CCO)nc12 [dinaciclib]
5.13: [2]
5.79 ± 0.13: [3]
< 4.52: all other assays above
